The values that follow are results of earlier work, collected in EP2736496B1, “PHARMACEUTICAL COMPOSITION CONTAINING AN ANTIMUSCARINIC AGENT AND METHOD FOR THE PREPARATION THEREOF” (Pharmathen S.A., priority 2011, dated 2013).

In brackets after ≈: the same amount, converted by molar mass.

Take `Cc1ccc(O)c([C@H](CCN(C(C)C)C(C)C)c2ccccc2)c1` [Tolterodine, (R)-N, N-diisopropyl-3-(2-hydroxy-5-methylphenyl)-3-phenylpropylamine]: the water solubility was 12 mg/mL (≈ 36.9 mM).
